Experimental data as given in patent US20220260587A1, “METHOD” (Worg Pharmaceuticals (Hangzhou) Co., Ltd., priority 2019, published 2022).

Legend:
EAE = details: cited from earlier work
[1] = test system: response to protein antigen (SAg) in lymph node and spleen cells; assay: Ex vivo tolerance assay; assay type: in vivo, HLA-DR transgenic mice; details: dose-escalating subcutaneous injections (0,1; 1; 10 and 3×100 μg), IFNg response to SAg, FIG. 5
Procedure: Response to protein antigen in lymph nodes (A) and spleens (B) of peptide-treated and non-treated mice. HLA-DR transgenic mice were treated with a dose-escalating regime of subcutaneous injections (0,1; 1; 10 and 3×100 μg every other day) of a tolerogenic (peptide Q) or non-tolerogenic (peptide P) peptide, or control injections (PBS). Afterwards, mice were immunized with peptide antigen in CFA and 10 days later, lymph nodes and spleens were dissected. Lymph node and spleen cells were cultured in vitro for 3 days at 37° C. in the presence of protein antigen (SAg) or positive control (PPD). The response of the cells towards the protein antigen was evaluated by measuring IFNg levels in supernatant of the cultures. *p<0.05
HLA-DRtg mice were injected subcutaneously in the flank region with 0.1 μg, 1 μg and 10 μg of peptide on days −15, −13 and −11 respectively, followed by 3 injections of 100 μg peptide on days −8, −6 and −4 (dose escalation schedule). On day 0, the mice were immunised subcutaneously in the base of the tail with 50 μg antigen (parental peptide) emulsified in CFA (peptide/CFA).
Ten days after immunisation, draining lymph nodes (LN) and spleens were harvested. […]
IFNγ concentrations in supernatants were assessed by cytokine ELISA (R&D Systems, Abingdon, UK) and cell activation was measured.

MHCII on dendritic cells = assay: In vivo MHCII loading assay; set-up: species or system HLA-DRtg mice; details: for CD4+ T cell activation (IFNγ) by dendritic cells loaded in vivo: 100 μg peptide subcutaneously, spleen CD11c+ cells 2 hours post injection, co-culture 72 hours, FIG. 4
Procedure: Response of peptide-specific CD4^+ T cells towards peptide loaded in vivo on dendritic cells. […] 2 h post injection, spleens were dissected and CD11c^+ cells (dendritic cells) were isolated. These CD11c^+ cells were co-cultured with peptide-specific CD4+ cells for 72 h at 37° C. IFNγ was measured in the supernatant of these cultures to evaluate the response to peptide by the CD4^+ T cells.
In particular, HLA-DRtg mice were injected with 100 μg of peptide in 100 μl PBS subcutaneously in the flank. Control animals received a subcutaneous injection of 100 μl PBS. After 2 hours, spleens were harvested and single-cell suspensions were made. CD11c^+ cells (splenic dendritic cells) were positively selected using CD11c microbeads according to the manufacturer's instructions (Miltenyi Biotec, Bergisch Gladbach, Germany). Average purities of >92% were reached.
1×10^5 CD11c^+ cells were co-cultured with 1×10^5 CD4^+ cells (primary T cells) in round bottom 96-well plates in X-vivo 15 medium (supplemented with 2 mM L-glutamine, 50 U/mL penicillin and 50 U/mL streptomycin; Lonza). The CD4^+ cells were isolated from HLA-DRtg mice that were immunised subcutaneously in the base of the tail with 50 μg peptide emulsified in CFA (peptide/CFA). Ten days after immunisation, draining lymph nodes (LN) and spleens were harvested. LN cells and splenocytes were isolated and CD4^+ T cells were isolated by negative selection using Magnisort Mouse CD4 Isolation kit (ThermoFisher Scientific) according to the manufacturer's instructions.
After 72 hours, supernatant of the CD11c^+-CD4^+ co-cultures was collected. CD4^+ T cell activation was analysed by IFNγ ELISA (R&D Systems, Abingdon, UK). In a parallel experiment, CD4^+ T cell responses towards peptide added in vitro were assessed to make sure the T cells recognize the peptides presented by the CD11c^+ cells.

MHCII = details: test peptides of the competition assay; cited from earlier work
[2] = biological target: MHCII (HLA-DR2) with bound CLIP (MHCII-CLIP) (Homo sapiens, UniProt P01903+P01911); assay: CLIP displacement assay; assay type: cell-based; details: MBP-specific T cell line 24 hours
Procedure: Response of MBP-specific T cell line to HLA-DR2 monomers following peptide exchange. Biotinylated HLA-DR2 (DRB1*1501) monomers, with the CLIP peptide bound, were attached to neutravidin coated 96 well plates. Wells were incubated with the indicated concentration of MBP 83-99, a dominant HLA-DR2 restricted epitope of MBP, for 16 hours and the plates washed. Control wells were coated with the DR2 monomer pre-loaded with the MBP 83-99 peptide. A T cell line specific for MBP was incubated with the monomers at 37° C. for 24 hours and response assessed by measurement of secreted IL-2.
MHCII (HLA-DR2) with bound CLIP (MHCII-CLIP) was affixed to wells of a 96-well plate using neutravidin and biotin. In particular, 96-well plates were coated with 15 μg/ml neutravidin in PBS overnight at 4° C. Plates were washed twice with wash buffer (0.1% BSA/PBS) and blocked with 1% BSA in PBS for 2 hours at room temperature. Plates were washed twice with wash buffer and 0.125 μg/ml of biotin-MHCII-CLIP in PBS was added for a 2-hour incubation at room temperature in a humid atmosphere. Plates were washed 4 times with wash buffer, leaving wells coated in MHCII-CLIP. Positive control wells were coated with MHCII with bound MBP 83-99 (instead of CLIP). […]
T cell activation was assessed by measuring secreted IL2.

Sequence of MHCII (HLA-DR2) with bound CLIP (MHCII-CLIP) (P01903 26-254): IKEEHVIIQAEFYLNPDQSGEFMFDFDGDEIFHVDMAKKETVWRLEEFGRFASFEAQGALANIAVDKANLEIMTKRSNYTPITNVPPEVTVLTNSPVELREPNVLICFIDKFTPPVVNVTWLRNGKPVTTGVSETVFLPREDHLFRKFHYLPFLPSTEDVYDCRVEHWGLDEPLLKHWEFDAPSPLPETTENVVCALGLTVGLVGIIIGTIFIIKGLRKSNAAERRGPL
Sequence of MHCII (HLA-DR2) with bound CLIP (MHCII-CLIP) (P01911 30-227 limits assumed): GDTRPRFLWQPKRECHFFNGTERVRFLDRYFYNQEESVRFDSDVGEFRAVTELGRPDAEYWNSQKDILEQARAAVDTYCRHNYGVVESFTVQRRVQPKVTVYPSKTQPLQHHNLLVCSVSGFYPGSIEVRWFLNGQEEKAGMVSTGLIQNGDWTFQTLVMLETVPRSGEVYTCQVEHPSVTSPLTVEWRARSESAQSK

MBP peptide 89-101: myelin basic protein (MBP) peptide 89-101, immunodominant antigen after immunisation (PHLIRLFSRDAPG; UniProt P02686 89-101, looked up, fragment)
inducing tolerance (EAE; administered in solution): ineffective | immunogen: priming for T cell reactivity and induction of EAE (EAE; after immunisation): very effective immunogen

KKIFKKISRDKSVTIYLKK (H-KKIFKKISRDKSVTIYLKK-NH2) [Peptide P]
tolerogenicity [1]: non-tolerogenic

KKKIFKKISRDKSVTIYLKKK (H-KKKIFKKISRDKSVTIYLKKK-NH2) [Peptide Q]
tolerogenicity [1]: tolerogenic

GILVSYQIKVK (H-GILVSYQIKVK-NH2) [Peptide N]
CD4+ T cell activation (IFNγ) by dendritic cells loaded in vivo (MHCII on dendritic cells): did not cause T cell activation | HLA-DR binding (MHCII on dendritic cells; designation in legend of FIG. 4): HLA-DR non-binding

NPILLWQPIPVHTVPLSEDQ (H-NPILLWQPIPVHTVPLSEDQ-NH2) [Peptide J, reference compound]
affinity for MHCII (known) (MHCII): good affinity

KKKGILVSYQIKVKKKK (H-KKKGILVSYQIKVKKKK-NH2) [Peptide 0]
CD4+ T cell activation (IFNγ) by dendritic cells loaded in vivo (MHCII on dendritic cells): did

LILLPLLANNRERRGIALDGKIKHEDTNLASSTIIKEG [Peptide K]
affinity for MHCII (known) (MHCII): poor affinity

GLKMFPDLTKVYSTD (H-GLKMFPDLTKVYSTD-NH2) [Peptide L]
affinity for MHCII (known) (MHCII): good affinity

KKEIFKKISRDKSVTIYLEKK (H-KKEIFKKISRDKSVTIYLEKK-NH2) [Peptide M]
affinity for MHCII (known) (MHCII): poor affinity

ENPVVHFFKNIVTPRIP [MBP 83-99]
T cell activation (secreted IL2) ([2]; MBP 83-99 at 3 μM added to MHCII-CLIP (CLIP monomer) for 16 hours): T cells are activated | T cell activation (secreted IL2) ([2]; MBP 83-99 at 30 μM added to MHCII-CLIP (CLIP monomer) for 16 hours): T cells are activated
